Reference: patent US5420027A, “Methods and compositions for the expression of biologically active fusion proteins comprising a eukaryotic cytochrome P450 fused to a reductase in bacteria” (Board of Regents, The University of Texas System, priority 1992, dated 1995)
Read-outs that look alike come from different tables or passages of the source.

Tests used:
[1] = molecular target: T1, bovine P450 17A1- rat liver reductase fusion protein (UniProt P00388+P05185, W2A); test: Steroid metabolism by bovine P450 17A1-rat liver reductase fusion protein with NADPH
T1 sequence (P05185+P00388 with tags, fused parts or gaps P05185:W2A): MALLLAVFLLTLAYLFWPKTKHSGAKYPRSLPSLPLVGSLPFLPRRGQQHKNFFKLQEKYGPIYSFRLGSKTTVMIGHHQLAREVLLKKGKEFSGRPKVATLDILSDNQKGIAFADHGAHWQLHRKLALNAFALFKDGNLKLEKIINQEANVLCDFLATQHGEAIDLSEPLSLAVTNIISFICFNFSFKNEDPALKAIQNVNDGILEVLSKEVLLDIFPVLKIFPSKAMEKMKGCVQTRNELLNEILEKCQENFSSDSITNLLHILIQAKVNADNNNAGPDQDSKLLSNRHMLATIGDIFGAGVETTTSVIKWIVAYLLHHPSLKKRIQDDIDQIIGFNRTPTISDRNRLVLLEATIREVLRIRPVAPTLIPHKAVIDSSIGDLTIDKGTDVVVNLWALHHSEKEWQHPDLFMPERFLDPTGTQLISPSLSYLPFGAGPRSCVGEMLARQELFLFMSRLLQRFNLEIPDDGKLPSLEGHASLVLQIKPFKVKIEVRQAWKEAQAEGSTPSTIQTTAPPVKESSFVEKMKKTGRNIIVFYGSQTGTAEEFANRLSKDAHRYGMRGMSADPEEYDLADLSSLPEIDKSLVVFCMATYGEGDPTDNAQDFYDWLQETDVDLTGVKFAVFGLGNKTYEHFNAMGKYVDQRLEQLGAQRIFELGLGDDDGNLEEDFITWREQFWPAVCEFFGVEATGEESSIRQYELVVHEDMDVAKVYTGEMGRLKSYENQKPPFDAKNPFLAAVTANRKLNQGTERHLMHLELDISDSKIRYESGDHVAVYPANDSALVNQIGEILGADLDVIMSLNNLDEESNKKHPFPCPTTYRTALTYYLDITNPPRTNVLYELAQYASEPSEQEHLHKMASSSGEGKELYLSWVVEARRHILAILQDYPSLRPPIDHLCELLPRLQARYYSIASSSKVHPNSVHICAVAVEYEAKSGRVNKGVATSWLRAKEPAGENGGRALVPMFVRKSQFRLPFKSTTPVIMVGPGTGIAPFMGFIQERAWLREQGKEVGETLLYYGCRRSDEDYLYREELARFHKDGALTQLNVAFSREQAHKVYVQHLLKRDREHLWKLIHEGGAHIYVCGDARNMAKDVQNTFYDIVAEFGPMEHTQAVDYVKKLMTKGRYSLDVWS
Procedure: FIG. 11. […] Analysis was performed with reverse phase HPLC chromatography on a C18 column.
In the present example, purification of the fusion protein was achieved by chromatography on DE-52 and 2', 5' ADP-sepharose.

bovine P45017α = molecular target: T2, bovine P45017α (Bos taurus, UniProt P05185, W2A); test: Substrate-induced difference spectra (substrate binding) in intact E. coli expressing P45017α; conditions: steroid added until spectrally saturated
T2 construct: made in house; host or cells: E. coli JM109 harboring pCWmod17 (intact cells)
T2 sequence (P05185 1-509 W2A): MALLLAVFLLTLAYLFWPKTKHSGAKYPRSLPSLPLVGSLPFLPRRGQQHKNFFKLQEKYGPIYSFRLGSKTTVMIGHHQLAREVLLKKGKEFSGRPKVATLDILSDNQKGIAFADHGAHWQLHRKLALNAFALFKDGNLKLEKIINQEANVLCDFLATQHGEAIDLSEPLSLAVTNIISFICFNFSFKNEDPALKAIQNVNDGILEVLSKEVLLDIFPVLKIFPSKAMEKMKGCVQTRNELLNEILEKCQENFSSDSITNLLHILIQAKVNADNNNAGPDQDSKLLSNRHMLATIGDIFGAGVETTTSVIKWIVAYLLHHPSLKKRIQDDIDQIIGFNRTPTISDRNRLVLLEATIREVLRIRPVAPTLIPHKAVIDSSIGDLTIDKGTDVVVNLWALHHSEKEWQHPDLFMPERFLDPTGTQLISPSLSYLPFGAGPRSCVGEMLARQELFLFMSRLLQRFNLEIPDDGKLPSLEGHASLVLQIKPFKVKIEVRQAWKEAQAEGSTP
Procedure: The functional role of the binding of C21 steroids to the expressed P45017α was determined by incubation of transformed E. coli with radiolabeled substrates and HPLC analysis of substrates and products.
For the studies shown in FIG. 3B, substrate binding spectra were obtained by adding steroid to the indicated final concentration: (preg) pregnenolone 22 μM, (17OH preg) 17α-hydroxypregnenolone 40 μM, (DHEA) dehydroepiandrosterone 46 μM, (AD) androstenedione 46 μM. A volume of washed cells containing 1.6 nmoles P45017α was diluted to 6 ml with MOPS buffer and divided into the sample and reference cuvettes of an Aminco DW-2A spectrophotometer. A baseline tracing was recorded from 350 to 510 nm (representative shown). Steroid was added in 10 μl aliquots (1-2mg/ml in ethanol) to the sample with an equal volume of ethanol added to the reference. Additional aliquots of steroids and ethanol were added until the bacterially expressed P45017α was spectrally saturated (spectra shown).

human liver P450 1A2 = molecular target: T3, human liver P450 1A2 (Homo sapiens, UniProt P05177, A19F/I20L/S18V); test: Ethoxyresorufin and ethoxycoumarin O-deethylase activities of P450 1A2-containing E. coli membranes (fluorometric); format: biochemical; conditions: O-deethylation; membranes plus purified reductase, 37° C.
T3 construct: made in house; host or cells: E. coli DH5α membranes, pCWori+ plasmid
T3 sequence (P05177 with tags, fused parts or gaps S18V/A19F/I20L limits assumed): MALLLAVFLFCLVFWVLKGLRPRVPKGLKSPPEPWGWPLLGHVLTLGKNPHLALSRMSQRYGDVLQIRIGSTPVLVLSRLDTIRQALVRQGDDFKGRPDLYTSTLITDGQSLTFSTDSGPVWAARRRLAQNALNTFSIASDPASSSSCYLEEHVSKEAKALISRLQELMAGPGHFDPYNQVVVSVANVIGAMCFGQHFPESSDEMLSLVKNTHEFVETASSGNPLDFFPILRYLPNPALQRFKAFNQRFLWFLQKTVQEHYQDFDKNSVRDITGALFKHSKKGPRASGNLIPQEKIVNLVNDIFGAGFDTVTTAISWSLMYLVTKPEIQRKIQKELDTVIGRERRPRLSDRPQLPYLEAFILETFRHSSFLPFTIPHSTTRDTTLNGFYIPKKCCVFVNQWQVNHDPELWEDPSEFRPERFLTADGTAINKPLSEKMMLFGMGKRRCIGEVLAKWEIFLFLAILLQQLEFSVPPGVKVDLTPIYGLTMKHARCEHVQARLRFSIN
Procedure: (§1) Membranes from P450 1A2-expressing E. coli were incubated with pure NADPH-cytochrome P450 reductase and the activity for the P450 directed oxidation of a number of substrates was determined.
(§2) Ethoxyresorufin and ethoxycoumarin O-deethylase activities were assayed fluorometrically using an Aminco-Bowman fluorometer as previously described (Burke & Mayer, 1974; Ullrich & Weber, 1972). […] Substrates were added as DMSO solutions in less than 0.1% of the final volume. The reactions were initiated by the addition of 10 μl of 50 mM NADPH.

[2] = molecular target: T4, bovine 17α-hydroxylase (P45017α) (Bos taurus, UniProt P05185, W2A); conditions: for conversion by expressed P45017α (17α-hydroxylation / 17,20-lyase): intact E. coli, 2.5 μM steroid, 28° C., up to 8 hours, no added reductase
T4 sequence (P05185 1-509 W2A): T2 sequence (P05185 1-509 W2A)
Procedure: The initial substrates employed were pregnenolone, 17α-hydroxypregnenolone, and progesterone. For these studies, E. coli were grown and induced as described for the FIG. 2 studies. Cells were pelleted, washed once in MOPS buffer and resuspended in the same buffer at 1/20 volume of the original bacterial culture. A volume of concentrated cells corresponding to 3.7-4.2 nmoles P45017α was diluted to 5ml MOPS buffer containing 10 mM glucose, 2.5 μM steroid and 100,000 cpm/ml of ^3 H-labeled radioactive steroid. Samples were incubated at. 28° C. with gentle shaking. Aliquots (0.5 ml) were removed at 0, 0.5, 1, 2, 4, 6 and 8 hours after steroid addition. Following extraction of cells and culture media steroids were analyzed by HPLC as previously described (Estabrook et al., 1988).

[3] = substrate: CCOc1ccc2nc3ccc(=O)cc-3oc2c1; test: Ethoxyresorufin and ethoxycoumarin O-deethylase activities of P450 1A2-containing E. coli membranes (fluorometric); format: biochemical, human; conditions: other: O-deethylation, membranes plus purified reductase, 37° C., pH 7.4
Procedure: as §1, §2

[4] = substrate: C[C@]12CC[C@@H]3c4ccc(O)cc4CC[C@H]3[C@@H]1CC[C@@H]2O; test: cells, lysate or membranes named; conditions: other: estradiol to 2-OH metabolite, membranes plus purified reductase, 37° C., pH 7.5
[5] = membrane-bound fused enzyme (FIG. 10)
[6] = purified fusion protein incubated with NADPH (FIGS. 11, 12)

## CC(=O)[C@@]1(O)CC[C@H]2[C@@H]3CC=C4C[C@@H](O)CC[C@]4(C)[C@H]3CC[C@@]21C [17α-hydroxyregnenolone, 17α-hydroxypregnenolone]
[1]; [5]
  metabolism by membrane-bound fusion protein: lost the ability to catalyze the lyase reaction
[1]; [6]
  metabolism by purified fusion protein: DHEA is formed in a time dependent manner
Bovine P45017α
  binding to expressed P45017α (substrate-induced difference spectrum): binding of substrates was also observed

## CCOc1ccc2ccc(=O)oc2c1 [Ethoxycoumarin]
Human liver P450 1A2
  Vmax: 0.3644 mol/min/mol P450

## C[C@]12CCC(=O)C=C1CC[C@@H]1[C@@H]2CC[C@]2(C)C(=O)CC[C@@H]12 [androstenedione]
Bovine P45017α
  binding to expressed P45017α (substrate-induced difference spectrum): no binding

## C[C@]12CC[C@H](O)CC1=CC[C@@H]1[C@@H]2CC[C@]2(C)C(=O)CC[C@@H]12 [dehydroepiandrosterone]
Bovine P45017α
  binding to expressed P45017α (substrate-induced difference spectrum): much less binding

## CC(=O)N1CCN(c2ccc(OCC3COC(Cn4ccnc4)(c4ccc(Cl)cc4Cl)O3)cc2)CC1 (stereo not shown) [ketoconazole]
[2]; intact E. coli expressing bovine P45017α
  inhibition of 17α-hydroxylase activity: inhibit 17α-hydroxylase activity

## CC(=O)[C@H]1CC[C@H]2[C@@H]3CC=C4C[C@@H](O)CC[C@]4(C)[C@H]3CC[C@]12C [pregnenolone]
[1]
  metabolism by membrane-bound fusion protein: rather slow rate
  metabolism by purified fusion protein: remarkably high enzymatic activity
[2]
  conversion by expressed P45017α (17α-hydroxylation / 17,20-lyase): readily converted to their 17α-hydroxylated products
Bovine P45017α
  binding to expressed P45017α (substrate-induced difference spectrum): binding of substrates was also observed

## CC(=O)[C@H]1CC[C@H]2[C@@H]3CCC4=CC(=O)CC[C@]4(C)[C@H]3CC[C@]12C [progesterone]
[1]; [5]
  metabolism by membrane-bound fusion protein: rather slow rate
[1]; [6]
  metabolism by purified fusion protein: remarkably high enzymatic activity
[2]
  conversion by expressed P45017α (17α-hydroxylation / 17,20-lyase): readily converted to their 17α-hydroxylated products
Bovine P45017α
  binding to expressed P45017α (substrate-induced difference spectrum): binding of substrates was also observed

B1: human liver P450 1A2 (Homo sapiens; A19F/I20L/S18V) (protein)
chain: T3 sequence (P05177 with tags, fused parts or gaps S18V/A19F/I20L limits assumed)
notes: made in house; host or cells: E. coli DH5α membranes, pCWori+ plasmid
[3]
  Km: 0.01 µM
  kcat: 2.5 mol/min/mol P450
[4]
  Km: 13 µM
  kcat: 1.5 mol/min/mol P450
